From ChEMBL document CHEMBL1141668, “Synthesis and biological activity of imidazopyridine anticoccidial agents: Part II” (Eur J Med Chem, 2008) come the findings set out here.

Test [1] concerns Eimeria maxima. Description: Anticoccidial activity against Eimeria maxima in chickens assessed as reduction of oocysts at 8 ppm measured after 8 days by ExMAC assay relative to untreated control. It counts as functional. Further details: scale not given: the % may be the effect or the level left.
For test [2], the system named is Eimeria maxima. The test can be described thus: Anticoccidial activity against Eimeria maxima in chickens assessed as reduction of oocysts at 6 ppm measured after 8 days by ExMAC assay relative to untreated control. The test is classed as functional. Further details: scale not given: the % may be the effect or the level left.
Test [3] has as its system Eimeria maxima. The test can be described thus: Anticoccidial activity against Eimeria maxima in chickens assessed as reduction of oocysts at 10 ppm measured after 8 days by ExMAC assay relative to untreated control. The test is classed as functional. Further details: scale not given: the % may be the effect or the level left.
Test [4] addresses cGMP-dependent protein kinase (Eimeria tenella, UniProt Q8MMZ8). Description: Inhibition of Eimeria tenella cGMP-dependent protein kinase.
In test [5] the test system is Eimeria tenella. The test can be described thus: Anticoccidial activity against Eimeria tenella in chickens assessed as reduction of oocysts at 25 ppm measured after 8 days by ExMAC assay relative to untreated control. The test is classed as functional. Further details: scale not given: the % may be the effect or the level left.
Test [6] concerns Eimeria tenella. Description: Anticoccidial activity against Eimeria tenella in chickens assessed as reduction of oocysts at 12.5 ppm measured after 8 days by ExMAC assay relative to untreated control. The test is classed as functional. Further details: scale not given: the % may be the effect or the level left.
Test [7] concerns Eimeria tenella. Description: Anticoccidial activity against Eimeria tenella in chickens assessed as reduction of oocysts at 8 ppm measured after 8 days by ExMAC assay relative to untreated control. The arrangement: scale not given: the % may be the effect or the level left. It counts as functional.
Test [8] has as its system Eimeria tenella. Description: Anticoccidial activity against Eimeria tenella in chickens assessed as reduction of oocysts at 6 ppm measured after 8 days by ExMAC assay relative to untreated control. The test is classed as functional. The arrangement: scale not given: the % may be the effect or the level left.
For test [9], the system named is Eimeria tenella. Description: Anticoccidial activity against Eimeria tenella in chickens assessed as reduction of oocysts at 10 ppm measured after 8 days by ExMAC assay relative to untreated control. It counts as functional. Further details: scale not given: the % may be the effect or the level left.
Test [10] relates to Eimeria acervulina. Description: Anticoccidial activity against Eimeria acervulina in chickens assessed as reduction of oocysts at 25 ppm measured after 8 days by ExMAC assay relative to untreated control. It counts as functional. Further details: scale not given: the % may be the effect or the level left.
For test [11], the system named is Eimeria acervulina. Description: Anticoccidial activity against Eimeria acervulina in chickens assessed as reduction of oocysts at 12.5 ppm measured after 8 days by ExMAC assay relative to untreated control. The arrangement: scale not given: the % may be the effect or the level left. It counts as functional.
Test [12] concerns Eimeria acervulina. Description: Anticoccidial activity against Eimeria acervulina in chickens assessed as reduction of oocysts at 8 ppm measured after 8 days by ExMAC assay relative to untreated control. It counts as functional. The arrangement: scale not given: the % may be the effect or the level left.
The test system of test [13] is Eimeria acervulina. Description: Anticoccidial activity against Eimeria acervulina in chickens assessed as reduction of oocysts at 6 ppm measured after 8 days by ExMAC assay relative to untreated control. It counts as functional. Further details: scale not given: the % may be the effect or the level left.
Test [14] concerns Eimeria acervulina. The test can be described thus: Anticoccidial activity against Eimeria acervulina in chickens assessed as reduction of oocysts at 10 ppm measured after 8 days by ExMAC assay relative to untreated control. The test is classed as functional. Further details: scale not given: the % may be the effect or the level left.
Test [15] concerns Eimeria mitis. The test can be described thus: Anticoccidial activity against Eimeria mitis in chickens assessed as reduction of oocysts at 25 ppm measured after 8 days by ExMAC assay relative to untreated control. It counts as functional. Further details: scale not given: the % may be the effect or the level left.
Test [16] relates to Eimeria mitis. Description: Anticoccidial activity against Eimeria mitis in chickens assessed as reduction of oocysts at 12.5 ppm measured after 8 days by ExMAC assay relative to untreated control. The test is classed as functional. Further details: scale not given: the % may be the effect or the level left.
In test [17] the test system is Eimeria mitis. Description: Anticoccidial activity against Eimeria mitis in chickens assessed as reduction of oocysts at 8 ppm measured after 8 days by ExMAC assay relative to untreated control. The test is classed as functional. Further details: scale not given: the % may be the effect or the level left.
Test [18] has as its system Eimeria mitis. Description: Anticoccidial activity against Eimeria mitis in chickens assessed as reduction of oocysts at 6 ppm measured after 8 days by ExMAC assay relative to untreated control. Further details: scale not given: the % may be the effect or the level left. The test is classed as functional.
In test [19] the test system is Eimeria mitis. Description: Anticoccidial activity against Eimeria mitis in chickens assessed as reduction of oocysts at 10 ppm measured after 8 days by ExMAC assay relative to untreated control. The test is classed as functional. Further details: scale not given: the % may be the effect or the level left.
Test [20] has as its system Eimeria maxima. Description: Anticoccidial activity against Eimeria maxima in chickens assessed as reduction of oocysts at 25 ppm measured after 8 days by ExMAC assay relative to untreated control. It counts as functional. The arrangement: scale not given: the % may be the effect or the level left.
In test [21] the test system is Eimeria maxima. The test can be described thus: Anticoccidial activity against Eimeria maxima in chickens assessed as reduction of oocysts at 12.5 ppm measured after 8 days by ExMAC assay relative to untreated control. It counts as functional. Further details: scale not given: the % may be the effect or the level left.
Test [22] has as its system Eimeria tenella. Description: Anticoccidial activity against Eimeria tenella in chickens assessed as reduction of oocysts at 50 ppm measured after 8 days by ExMAC assay relative to untreated control. It counts as functional. Further details: scale not given: the % may be the effect or the level left.
The test system of test [23] is Eimeria acervulina. The test can be described thus: Anticoccidial activity against Eimeria acervulina in chickens assessed as reduction of oocysts at 50 ppm measured after 8 days by ExMAC assay relative to untreated control. It counts as functional. The arrangement: scale not given: the % may be the effect or the level left.
Test [24] deals with Eimeria mitis. Description: Anticoccidial activity against Eimeria mitis in chickens assessed as reduction of oocysts at 50 ppm measured after 8 days by ExMAC assay relative to untreated control. The test is classed as functional. The arrangement: scale not given: the % may be the effect or the level left.
Test [25] has as its system Eimeria maxima. Description: Anticoccidial activity against Eimeria maxima in chickens assessed as reduction of oocysts at 50 ppm measured after 8 days by ExMAC assay relative to untreated control. It counts as functional. Further details: scale not given: the % may be the effect or the level left.
In test [26] the test system is Eimeria maxima. The test can be described thus: Anticoccidial activity against Eimeria maxima in chickens assessed as reduction of oocysts at 1 ppm measured after 8 days by ExMAC assay relative to untreated control. It counts as functional. Further details: scale not given: the % may be the effect or the level left.
For test [27], the system named is Eimeria tenella. Description: Anticoccidial activity against Eimeria tenella in chickens assessed as reduction of oocysts at 4 ppm measured after 8 days by ExMAC assay relative to untreated control. The test is classed as functional. Further details: scale not given: the % may be the effect or the level left.
The test system of test [28] is Eimeria tenella. The test can be described thus: Anticoccidial activity against Eimeria tenella in chickens assessed as reduction of oocysts at 2 ppm measured after 8 days by ExMAC assay relative to untreated control. The test is classed as functional. The arrangement: scale not given: the % may be the effect or the level left.
Test [29] deals with Eimeria tenella. The test can be described thus: Anticoccidial activity against Eimeria tenella in chickens assessed as reduction of oocysts at 1 ppm measured after 8 days by ExMAC assay relative to untreated control. The test is classed as functional. Further details: scale not given: the % may be the effect or the level left.
The test system of test [30] is Eimeria acervulina. Description: Anticoccidial activity against Eimeria acervulina in chickens assessed as reduction of oocysts at 4 ppm measured after 8 days by ExMAC assay relative to untreated control. It counts as functional. Further details: scale not given: the % may be the effect or the level left.
The subject of test [31] is Eimeria acervulina. Description: Anticoccidial activity against Eimeria acervulina in chickens assessed as reduction of oocysts at 2 ppm measured after 8 days by ExMAC assay relative to untreated control. It counts as functional. Further details: scale not given: the % may be the effect or the level left.
Test [32] has as its system Eimeria acervulina. Description: Anticoccidial activity against Eimeria acervulina in chickens assessed as reduction of oocysts at 1 ppm measured after 8 days by ExMAC assay relative to untreated control. The test is classed as functional. The arrangement: scale not given: the % may be the effect or the level left.
Test [33] deals with Eimeria mitis. Description: Anticoccidial activity against Eimeria mitis in chickens assessed as reduction of oocysts at 4 ppm measured after 8 days by ExMAC assay relative to untreated control. It counts as functional. Further details: scale not given: the % may be the effect or the level left.
The test system of test [34] is Eimeria mitis. Description: Anticoccidial activity against Eimeria mitis in chickens assessed as reduction of oocysts at 2 ppm measured after 8 days by ExMAC assay relative to untreated control. The test is classed as functional. Further details: scale not given: the % may be the effect or the level left.
The subject of test [35] is Eimeria mitis. Description: Anticoccidial activity against Eimeria mitis in chickens assessed as reduction of oocysts at 1 ppm measured after 8 days by ExMAC assay relative to untreated control. It counts as functional. Further details: scale not given: the % may be the effect or the level left.
The test system of test [36] is Eimeria maxima. The test can be described thus: Anticoccidial activity against Eimeria maxima in chickens assessed as reduction of oocysts at 4 ppm measured after 8 days by ExMAC assay relative to untreated control. It counts as functional. Further details: scale not given: the % may be the effect or the level left.
In test [37] the test system is Eimeria maxima. The test can be described thus: Anticoccidial activity against Eimeria maxima in chickens assessed as reduction of oocysts at 2 ppm measured after 8 days by ExMAC assay relative to untreated control. It counts as functional. The arrangement: scale not given: the % may be the effect or the level left.

Chain of cGMP-dependent protein kinase (Q8MMZ8 whole entry): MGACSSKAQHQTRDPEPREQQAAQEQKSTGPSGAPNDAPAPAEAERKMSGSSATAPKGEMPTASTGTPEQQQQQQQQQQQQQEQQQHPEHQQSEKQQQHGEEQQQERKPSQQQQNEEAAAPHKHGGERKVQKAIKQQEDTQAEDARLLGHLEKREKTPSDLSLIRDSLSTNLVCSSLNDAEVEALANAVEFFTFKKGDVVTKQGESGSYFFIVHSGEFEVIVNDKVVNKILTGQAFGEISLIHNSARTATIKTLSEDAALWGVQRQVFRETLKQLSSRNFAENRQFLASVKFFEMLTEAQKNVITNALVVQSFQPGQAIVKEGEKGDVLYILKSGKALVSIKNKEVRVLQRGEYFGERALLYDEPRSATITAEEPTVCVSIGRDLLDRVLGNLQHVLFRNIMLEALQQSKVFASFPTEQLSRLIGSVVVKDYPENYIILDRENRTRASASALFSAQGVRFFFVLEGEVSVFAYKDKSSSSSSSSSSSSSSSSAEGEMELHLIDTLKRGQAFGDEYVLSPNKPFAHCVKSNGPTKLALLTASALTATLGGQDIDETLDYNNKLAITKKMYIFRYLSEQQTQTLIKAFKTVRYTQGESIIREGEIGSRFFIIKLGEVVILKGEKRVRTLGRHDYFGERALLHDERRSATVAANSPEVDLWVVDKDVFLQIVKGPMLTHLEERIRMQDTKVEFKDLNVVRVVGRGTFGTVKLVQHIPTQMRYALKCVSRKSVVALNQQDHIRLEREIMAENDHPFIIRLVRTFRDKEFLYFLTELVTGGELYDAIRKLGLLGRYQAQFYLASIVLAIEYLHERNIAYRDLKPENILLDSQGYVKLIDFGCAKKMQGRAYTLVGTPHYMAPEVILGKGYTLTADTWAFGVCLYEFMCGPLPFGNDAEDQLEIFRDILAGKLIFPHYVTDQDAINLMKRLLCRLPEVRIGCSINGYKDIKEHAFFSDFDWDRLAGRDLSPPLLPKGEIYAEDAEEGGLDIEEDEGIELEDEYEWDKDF

As to `CCN1CCC(c2ccn3c(-c4ccnc(N)n4)c(-c4ccc(F)cc4)nc3c2)CC1`, the Activity was 100% with Eimeria maxima [1]; less than 50% in the test on Eimeria maxima [2]; 100% in the test with Eimeria maxima [3]; 100% with Eimeria tenella [5]; 100% in the test with Eimeria tenella [6]; 100% in the test with Eimeria tenella [7]. Besides, the Activity is on record as 100% in the test on Eimeria tenella [8]; 100% in the test with Eimeria tenella [9]; 100% in the test with Eimeria acervulina [10]; 80% in the test on Eimeria acervulina [11]; 80% with Eimeria acervulina [12]; less than 50% in the test on Eimeria acervulina [13]. The Activity in the test on Eimeria acervulina [14] was determined as 80%; in the test on Eimeria mitis [15], 100%; with Eimeria mitis [16], 100%; in the test with Eimeria mitis [17], 80%; in the test with Eimeria mitis [18], 80%; with Eimeria mitis [19] it was 80%. Moreover, the Activity with Eimeria maxima [20] and in the test with Eimeria maxima [21] was 100% throughout. Besides, the IC50 in test [4] turned out to be 0.11 nM.

In test [4], `NC(=O)c1ccn2c(-c3ccnc(N)n3)c(-c3ccc(F)cc3)nc2c1` registered an IC50 of 1.8 nM. Moreover, the Activity in the test on Eimeria tenella [22] is reported as 80%; in the test on Eimeria acervulina [23], less than 50%; in the test with Eimeria mitis [24], less than 50%; in the test on Eimeria maxima [25] it was 50%.

On to `CC(c1ccn2c(-c3ccnc(N)n3)c(-c3ccc(F)cc3)nc2c1)N(C)C` (single isomer, unassigned; enantiomer B), for which the Activity is 100% in the test with Eimeria maxima [26]; 80% in the test on Eimeria tenella [27]; 80% in the test with Eimeria tenella [28]; 50% in the test on Eimeria tenella [29]; 80% in the test with Eimeria acervulina [30]; 100% with Eimeria acervulina [31]. Further, the Activity in the test on Eimeria acervulina [32] is 80%; in the test on Eimeria mitis [33], 80%; in the test with Eimeria mitis [34], 80%; in the test with Eimeria mitis [35], less than 50%; with Eimeria maxima [36], 100%; in the test with Eimeria maxima [37], 80%. It took 0.067 nM to reach half-maximal inhibition in [4] (IC50).
